Source: paper PMC6919601, “Identification of Plasmodium dipeptidyl aminopeptidase allosteric inhibitors by high throughput screening” (PLoS ONE, 2019)

Biological target: T1, DPAP1 (Plasmodium falciparum, UniProt Q8IIJ9)
T1 sequence (Q8IIJ9 370-599 limits assumed): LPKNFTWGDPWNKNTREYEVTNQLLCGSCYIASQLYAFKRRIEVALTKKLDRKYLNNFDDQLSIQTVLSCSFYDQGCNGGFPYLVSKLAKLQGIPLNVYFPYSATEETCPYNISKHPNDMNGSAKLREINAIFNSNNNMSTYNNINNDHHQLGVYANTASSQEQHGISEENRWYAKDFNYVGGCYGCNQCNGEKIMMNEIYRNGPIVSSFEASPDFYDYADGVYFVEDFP
T1 sequence (Q8IIJ9 28-209 limits assumed): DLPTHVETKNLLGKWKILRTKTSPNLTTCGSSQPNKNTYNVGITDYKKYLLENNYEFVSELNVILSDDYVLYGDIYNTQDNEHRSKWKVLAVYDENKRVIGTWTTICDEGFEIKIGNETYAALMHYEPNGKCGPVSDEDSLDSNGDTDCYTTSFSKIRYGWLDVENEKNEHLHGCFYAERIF
T1 sequence (Q8IIJ9 600-700 limits assumed): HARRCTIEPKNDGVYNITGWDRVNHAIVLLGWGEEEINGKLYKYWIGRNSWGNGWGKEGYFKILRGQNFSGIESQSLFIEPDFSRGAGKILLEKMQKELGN
Assay: biochemical
Type: biochemical
Conditions: for DPAP Primary hit (Hit = 1): 10 μM HTS, 0 not defined; for inhibition at 10 µM: 10 μM compound, parasite lysates, (PR)2Rho, 30 min end-point, read-out: DPAP1 % Inhibition @ 10 uM

Row | Compound | DPAP Primary hit (Hit = 1) | inhibition at 10 µM [%]
1 | CCOc1ccc(C2CC(=O)N3CN(Cc4cccnc4)CSC3=C2C#N)cc1 (stereo not drawn) [SMDC178821, CCOc1ccc(cc1)C2CC(=O)N3CN(Cc4cccnc4)CSC3=C2C#N] | 1 | 56
2 | CCOc1ccc(C2CC(=O)N3CN(C4CCCCC4)CSC3=C2C#N)cc1 (stereo not drawn) [SMDC170152, CCOc1ccc(cc1)C2CC(=O)N3CN(CSC3=C2C#N)C4CCCCC4] | 0 | 47
3 | Cc1ccc(C2CC(=O)N3CN(CCc4ccccc4)CSC3=C2C#N)cc1 (stereo not drawn) [SMDC178761, Cc1ccc(cc1)C2CC(=O)N3CN(CCc4ccccc4)CSC3=C2C#N] | 1 | 64
4 | Cc1ccc(C2CC(=O)N3CN(C4CCCCC4)CSC3=C2C#N)cc1 (stereo not drawn) [SMDC170101, Cc1ccc(cc1)C2CC(=O)N3CN(CSC3=C2C#N)C4CCCCC4] | 0 | 26
5 | CC(C)C[C@H](NC(=O)N1CCOCC1)C(=O)N[C@H](/C=C/S(=O)(=O)c1ccccc1)CCc1ccccc1 [SMDC279744, CC(C)C[C@H](NC(=O)N1CCOCC1)C(=O)N[C@@H](CCc2ccccc2)\C=C\S(=O)(=O)c3ccccc3] | – | 6.4
6 | CC(C)C[C@H](NC(=O)OCc1ccccc1)C(=O)NC1CCOC1O (stereo partly drawn) [SMDC279746, CC(C)C[C@H](NC(=O)OCc1ccccc1)C(=O)NC2CCOC2O] | – | 5.05
7 | N#CC1=C2SCN(C3CCCCC3)CN2C(=O)CC1c1ccccc1F (stereo not drawn) [SMDC170132, Fc1ccccc1C2CC(=O)N3CN(CSC3=C2C#N)C4CCCCC4] | 0 | 38
8 | CSc1ccc(C2CC(=O)N3CN(C)CSC3=C2C#N)cc1 (stereo not drawn) [SMDC170124, CSc1ccc(cc1)C2CC(=O)N3CN(C)CSC3=C2C#N] | 1 | 75
9 | CCOc1ccc(C2CC(=O)N3CN(Cc4ccco4)CSC3=C2C#N)cc1 (stereo not drawn) [SMDC170142, CCOc1ccc(cc1)C2CC(=O)N3CN(Cc4occc4)CSC3=C2C#N] | 0 | 43
10 | N#CCNC(=O)[C@H](Cc1ccc2ccccc2c1)NC(=O)OCc1ccccc1 [SMDC279825, O=C(N[C@@H](Cc1ccc2ccccc2c1)C(=O)NCC#N)OCc3ccccc3] | – | 0.744
11 | N#CC1=C2SCN(CCN3CCOCC3)CN2C(=O)CC1c1ccc(F)cc1 (stereo not drawn) [SMDC178862, Fc1ccc(cc1)C2CC(=O)N3CN(CCN4CCOCC4)CSC3=C2C#N] | 1 | 50
12 | N#CC1=C2SCN(Cc3ccccc3)CN2C(=O)CC1c1ccc(Cl)cc1 (stereo not drawn) [SMDC170091, Clc1ccc(cc1)C2CC(=O)N3CN(Cc4ccccc4)CSC3=C2C#N] | 0 | 42
13 | Cc1ccc(C2CC(=O)N3CN(Cc4cccnc4)CSC3=C2C#N)cc1 (stereo not drawn) [SMDC178800, Cc1ccc(cc1)C2CC(=O)N3CN(Cc4cccnc4)CSC3=C2C#N] | 0 | 44
14 | CCOc1ccc(C2CC(=O)N3CN(Cc4ccccc4)CSC3=C2C#N)cc1 (stereo not drawn) [SMDC170162, CCOc1ccc(cc1)C2CC(=O)N3CN(Cc4ccccc4)CSC3=C2C#N] | 0 | 49
15 | CCc1ccc(C2CC(=O)N3CN(C4CCCCC4)CSC3=C2C#N)cc1 (stereo not drawn) [SMDC170103, CCc1ccc(cc1)C2CC(=O)N3CN(CSC3=C2C#N)C4CCCCC4] | 1 | 65
16 | CCc1ccc(C2CC(=O)N3CN(Cc4ccco4)CSC3=C2C#N)cc1 (stereo not drawn) [SMDC170172, CCc1ccc(cc1)C2CC(=O)N3CN(Cc4occc4)CSC3=C2C#N] | 0 | 34
17 | CCc1ccc(C2CC(=O)N3CN(Cc4ccccc4)CSC3=C2C#N)cc1 (stereo not drawn) [SMDC170113, CCc1ccc(cc1)C2CC(=O)N3CN(Cc4ccccc4)CSC3=C2C#N] | 0 | 39

Other lines, results leading:

Row | DPAP Primary hit (Hit = 1) | inhibition at 10 µM [%] | Compound
18 | 0 | 43 | N#CC1=C2SCN(CCc3ccccc3)CN2C(=O)CC1c1cccs1 (stereo not drawn) [SMDC178843, O=C1CC(C(=C2SCN(CCc3ccccc3)CN12)C#N)c4cccs4]
19 | 1 | 57 | COc1cc(C2CC(=O)N3CN(Cc4ccccc4)CSC3=C2C#N)cc(Br)c1O (stereo not drawn) [SMDC170146, COc1cc(cc(Br)c1O)C2CC(=O)N3CN(Cc4ccccc4)CSC3=C2C#N]
20 | 0 | 32 | COc1ccc(C2CC(=O)N3CN(Cc4ccccc4)CSC3=C2C#N)c(OC)c1 (stereo not drawn) [SMDC170154, COc1ccc(C2CC(=O)N3CN(Cc4ccccc4)CSC3=C2C#N)c(OC)c1]
21 | 0 | 4 | COc1cc(C2CC(=O)N3CN(C)CSC3=C2C#N)cc(OC)c1OC (stereo not drawn) [SMDC170174, COc1cc(cc(OC)c1OC)C2CC(=O)N3CN(C)CSC3=C2C#N]
22 | 0 | -1 | COc1cc(C2CC(=O)N3CN(C4CCCCC4)CSC3=C2C#N)ccc1O (stereo not drawn) [SMDC170163, COc1cc(ccc1O)C2CC(=O)N3CN(CSC3=C2C#N)C4CCCCC4]
23 | 0 | 22 | COc1cccc(C2CC(=O)N3CN(C4CCCCC4)CSC3=C2C#N)c1OC (stereo not drawn) [SMDC170144, COc1cccc(C2CC(=O)N3CN(CSC3=C2C#N)C4CCCCC4)c1OC]
24 | 0 | 48 | N#CC1=C2SCN(C3CCCC3)CN2C(=O)CC1c1cccs1 (stereo not drawn) [SMDC178882, O=C1CC(C(=C2SCN(CN12)C3CCCC3)C#N)c4cccs4]
25 | 0 | 7 | COc1ccc(C2CC(=O)N3CN(Cc4ccccc4)CSC3=C2C#N)cc1OC (stereo not drawn) [SMDC170071, COc1ccc(cc1OC)C2CC(=O)N3CN(Cc4ccccc4)CSC3=C2C#N]
26 | 0 | 36 | COc1ccc2ccccc2c1C1CC(=O)N2CN(Cc3ccccc3)CSC2=C1C#N (stereo not drawn) [SMDC170106, COc1ccc2ccccc2c1C3CC(=O)N4CN(Cc5ccccc5)CSC4=C3C#N]
27 | 0 | 27 | COc1ccc2ccccc2c1C1CC(=O)N2CN(C3CCCCC3)CSC2=C1C#N (stereo not drawn) [SMDC170116, COc1ccc2ccccc2c1C3CC(=O)N4CN(CSC4=C3C#N)C5CCCCC5]
28 | 0 | 33 | CN1CSC2=C(C#N)C(c3ccccc3)CC(=O)N2C1 (stereo not drawn) [SMDC170114, CN1CSC2=C(C#N)C(CC(=O)N2C1)c3ccccc3]
29 | 1 | 68 | CC(c1ccccc1)N1CSC2=C(C#N)C(c3cccs3)CC(=O)N2C1 (stereo not drawn) [SMDC178833, CC(N1CSC2=C(C#N)C(CC(=O)N2C1)c3cccs3)c4ccccc4]
30 | 0 | 48 | N#CC1=C2SCN(Cc3ccco3)CN2C(=O)CC1c1cccs1 (stereo not drawn) [SMDC178892, O=C1CC(C(=C2SCN(Cc3occc3)CN12)C#N)c4cccs4]
31 | 0 | 37 | COc1ccc2ccccc2c1C1CC(=O)N2CN(C)CSC2=C1C#N (stereo not drawn) [SMDC170175, COc1ccc2ccccc2c1C3CC(=O)N4CN(C)CSC4=C3C#N]
32 | 1 | 61 | COc1ccc(Br)cc1C1CC(=O)N2CN(Cc3ccco3)CSC2=C1C#N (stereo not drawn) [SMDC170125, COc1ccc(Br)cc1C2CC(=O)N3CN(Cc4occc4)CSC3=C2C#N]
33 | 0 | 31 | COc1ccc(C2CC(=O)N3CN(CCCc4ccccc4)CSC3=C2C#N)cc1OC (stereo not drawn) [SMDC178760, COc1ccc(cc1OC)C2CC(=O)N3CN(CCCc4ccccc4)CSC3=C2C#N]
34 | 0 | 48 | CCOc1ccc(C2CC(=O)N3CN(C)CSC3=C2C#N)cc1OC (stereo not drawn) [SMDC170104, CCOc1ccc(cc1OC)C2CC(=O)N3CN(C)CSC3=C2C#N]
35 | 0 | 11 | Cc1ccc(C2CC(=O)N3CN(C(C)c4ccccc4)CSC3=C2C#N)cc1 (stereo not drawn) [SMDC178820, CC(N1CSC2=C(C#N)C(CC(=O)N2C1)c3ccc(C)cc3)c4ccccc4]
36 | 0 | 2 | COc1cc(C2CC(=O)N3CN(C4CCCCC4)CSC3=C2C#N)cc(OC)c1OC (stereo not drawn) [SMDC170164, COc1cc(cc(OC)c1OC)C2CC(=O)N3CN(CSC3=C2C#N)C4CCCCC4]
37 | 0 | 26 | Cc1ccccc1C1CC(=O)N2CN(Cc3ccco3)CSC2=C1C#N (stereo not drawn) [SMDC170102, Cc1ccccc1C2CC(=O)N3CN(Cc4occc4)CSC3=C2C#N]
38 | 1 | 71 | CN1CSC2=C(C#N)C(c3cccc(OCc4ccccc4)c3)CC(=O)N2C1 (stereo not drawn) [SMDC170126, CN1CSC2=C(C#N)C(CC(=O)N2C1)c3cccc(OCc4ccccc4)c3]
39 | 0 | 20 | CCOc1cc(C2CC(=O)N3CN(Cc4ccccc4)CSC3=C2C#N)ccc1O (stereo not drawn) [SMDC170173, CCOc1cc(ccc1O)C2CC(=O)N3CN(Cc4ccccc4)CSC3=C2C#N]
40 | 0 | 47 | COc1ccc(C2CC(=O)N3CN(CCC(C)C)CSC3=C2C#N)cc1OC (stereo not drawn) [SMDC178780, COc1ccc(cc1OC)C2CC(=O)N3CN(CCC(C)C)CSC3=C2C#N]
41 | 0 | 24 | Cc1ccccc1C1CC(=O)N2CN(C3CCCCC3)CSC2=C1C#N (stereo not drawn) [SMDC170112, Cc1ccccc1C2CC(=O)N3CN(CSC3=C2C#N)C4CCCCC4]
42 | 0 | 44 | Cc1ccc(C2CC(=O)N3CN(CCC(C)C)CSC3=C2C#N)cc1 (stereo not drawn) [SMDC178751, CC(C)CCN1CSC2=C(C#N)C(CC(=O)N2C1)c3ccc(C)cc3]
